This is an account of results in BindingDB's records for doi:10.7270/Q2D798W4 (Burnham Center For Chemical Genomics, 2010).

Usually IC50 stands for the midpoint of a concentration-inhibition curve.

This assay deals with T1, Alkaline phosphatase, tissue-nonspecific isozyme (Homo sapiens, UniProt P05186).
T1 sequence (P05186 whole entry): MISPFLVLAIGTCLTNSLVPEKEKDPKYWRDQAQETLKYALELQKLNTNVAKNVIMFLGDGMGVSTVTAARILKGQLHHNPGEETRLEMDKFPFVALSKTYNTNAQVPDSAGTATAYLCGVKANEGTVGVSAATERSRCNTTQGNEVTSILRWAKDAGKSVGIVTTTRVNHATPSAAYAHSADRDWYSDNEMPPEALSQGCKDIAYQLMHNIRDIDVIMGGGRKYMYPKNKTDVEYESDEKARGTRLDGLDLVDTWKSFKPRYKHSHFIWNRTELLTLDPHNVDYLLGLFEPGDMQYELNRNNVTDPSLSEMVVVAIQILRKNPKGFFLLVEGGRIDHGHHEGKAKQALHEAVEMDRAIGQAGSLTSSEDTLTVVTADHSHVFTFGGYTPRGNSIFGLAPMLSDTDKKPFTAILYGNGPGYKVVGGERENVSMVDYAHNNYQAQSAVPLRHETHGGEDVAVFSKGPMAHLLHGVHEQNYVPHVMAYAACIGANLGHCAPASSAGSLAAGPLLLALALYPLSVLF
The assay can be described thus: inhibition of tissue-nonspecific alkaline phosphatase – biochemical, dose response (AID 488882).
Turning to `O=C(O)[C@H]1O[C@@H](Oc2c(-c3ccc(O)c(O)c3)oc3cc(O)cc(=O)c-3c2O)[C@H](O)[C@@H](O)[C@@H]1O` [quercetin glucuronide], the IC50 was more than 100 µM.

Compound `CCOC1=CC(=Cc2c(C)[nH]oc2=O)C=C(Br)C1=O` [4-[(Z)-(3-bromo-5-ethoxy-4-oxo-1-cyclohexa-2,5-dienylidene)methyl]-3-methyl-2H-isoxazol-5-one] yielded an IC50 of 38.1 µM.

Consider `C=c1[nH]n(Cc2ccccc2)c(=O)c1=Cc1ccc(N(C)C)cc1` [(4Z)-4-[[4-(dimethylamino)phenyl]methylidene]-5-methyl-2-(phenylmethyl)-3-pyrazolone], for which the IC50 was 46.7 µM.

`O=C(Nn1c(O)csc1=S)C(=O)Nn1c(O)csc1=S` [SMR000349781] came in with an IC50 of 12.8 µM.

Regarding `Cc1c(C(=O)NN=Cc2ccc(O)cc2O)[nH][nH]c1=O`, the IC50 turned out to be 7.32 µM.

Turning to `CC(N=Nc1ccccc1[N+](=O)[O-])c1ccc([N+](=O)[O-])cc1` (stereo unspecified), the 50% inhibitory concentration (IC50) is more than 100 µM.
